Measured values from patent US20090137527A1, “Compositions and methods for modulating immune function” (Resolvyx Pharmaceuticals, Inc., priority 2007, published 2009).

What was measured:
[1] = test system: lymph node cells from collagen-induced arthritis rats; test: Ex vivo cytokine production in lymph node cells from CIA rats treated with compound; design: species or system rat
Experimental: (§1) Female Lewis rats were anesthetized with 3-5% isoflurane and arthritis was induced by intradermal injection of 0.3 mL (100 μL at three different sites) of an emulsion […] 1.5 mg/mL of type II bovine collagen, CII (Elastin Products Inc., Cat# CM276), in incomplete Freund's adjuvant (IFA) at the base of the tail on day 0 and 6. Control rats were injected with an equal amount of IFA only.
(§2) were measured under two different treatment regimens. In the first (prophylactic) treatment regimen, Compound X was administered i.v., twice daily, at 0.3 mg/kg from day 0 to day 6 or 10. For ex vivo studies, animals were euthanized on day 6 after the last injection and their inguinal lymph nodes were harvested. […] For ex vivo studies, animals were euthanized on day 16 and inguinal lymph nodes were harvested. Venous blood samples were collected during the course of treatment. For CD3 activation, 96-well flat bottom plates were coated with anti-CD3 mAb (eBioscience, clone G4.18) 1 μg/mL. Plates were stored overnight at 4° C., and were subsequently rinsed with PBS once before use. Bovine Type II collagen for tissue culture was purchased from Chondrex (Cat# 2022) and was reconstituted according to the manufacturer's instructions. All data were processed and analyzed by t-test using GraphPad Prism software.
Treatment regimen one was used (n=3). Animals were treated with Compound X from day 0 to day 6, were sacrificed on day 6, and freshly harvested lymph nodes were pressed through a nylon strainer (BD Falcon Cat# 352340) to obtain a single cell suspension. Cells were washed and resuspended in RPMI 1640/10% FCS at 4×10^6/mL. In U-bottom 96-well plates, 100 μL or 4×10^5 cells and 100 μL of collagen at 25 or 50 μg/mL final concentrations were added. Plates were incubated in a 37° C., 5% CO2 incubator overnight. Supernatants were harvested, and rat cytokines were measured with Bioplex (BioRad).
In FIG. 2A, animals were given compound X from Day 0 to Day 6 (treatment regimen one). In FIG. 2B, animals were given compound X from day 8 to day 16 (treatment regimen two).
In FIG. 3A, animals were given compound X from Day 0 to Day 6 (treatment regimen one). In FIG. 3B, animals were given compound X from day 8 to day 16 (treatment regimen two). Freshly harvested lymph nodes were pressed through a nylon strainer (BD Falcon Cat# 352340) to obtain a single cell suspension. Cells were washed and resuspended in RPMI 1640/10% FCS at 4×10^6/mL. To anti-CD3 coated plates were added 4×10^5 cells per well and 100 μL RPMI 1640/10% FCS media. The plates were incubated in a 37° C., 5% CO2 incubator for three days (FIG. 3A) or overnight (FIG. 3B). Rat IL-17 was measured with a kit from Millipore (Cat# RCYTO-18K-01) following the manufacturer's instructions.

[2] = test system: rats with CIA; test: Rat collagen-induced arthritis (CIA): paw swelling and knee histopathology; assay type: in vivo
Experimental: as §1
The volume of both hind paws were measured using a water displacement plethysmometer (Ugo Basile, Biological Research Apparatus, Italy), and the onset of arthritis was indicated by increased paw volume, which appeared approximately on day 11 post injection. Both paw volumes and body weights were measured throughout the study every 2-3 days. Nineteen to twenty-one days after CII injection, the rats were euthanized with CO2. Blood was collected by cardiac puncture and serum was saved.
as §2
After the animals were euthanized, both hind paws and knees were removed, hind paws were weighed, and the paws and knees were placed in formalin. Following 1-2 days in fixative and 4-5 days in decalcifier, the ankle joints were cut in half longitudinally, and the knees were cut in half in the frontal plane. The joints were then processed, embedded, sectioned and stained with toluidine blue. Collagen arthritic ankles and knees were given scores of 0-5 for inflammation, pannus formation and bone resorption according to the following criteria:
1 Minimal infiltration of inflammatory cells in periarticular tissue 2 Mild infiltration 3 Moderate infiltration with moderate edema 4 Marked infiltration with marked edema 5 Severe infiltration with severe edema […]

[3] = test system: spleen cells; test: In vitro treatment of mouse spleen cells, CD3-induced cytokine production; assay type: cell-based; settings: 10 nM or 1000 nM, 5 days culture, then anti-CD3 overnight
Experimental: BALB/c female mice, 6-8 weeks old, were euthanized and spleens were removed under sterile conditions. Spleens were gently pressed through a nylon strainer. Spleen cells and remaining connective tissue mass were incubated in a 6-well plate with 4 mL of Growth Media (RPMI 1640 supplemented with 10% FCS). Compound X was added to give a final concentration of 10 nM or 1000 nM. Control groups were spleen cells without addition of Compound X. All groups were in triplicates (3 animals per group). Plates were cultured in a 37° C., 5% CO2 incubator. Once a day, 1 mL of culture media was removed from each well and replaced with 1 mL fresh growth media containing the same concentration of Compound X or fresh media only. Culture was continued for 5 days. All cells were then removed from the plates. Cells were passed through a nylon strainer to remove any aggregates, washed, counted and adjusted to 2.5×10^6/mL in growth media. To anti-CD3 coated plates (coated per the procedure described below) were added 200 μL, or 5×10^5 cells per well. Cells were cultured in a 37° C., 5% CO2 incubator overnight. Supernatants were harvested, and cytokine levels were measured by Bioplex.
For CD3 stimulation, anti-mouse CD3 mAb (BD Pharmingen clone 145-2C11) was used at 0.2 μg/mL in PBS to coat flat bottom 96-well plate at 4° C. overnight. Plates were rinsed twice with PBS before use.

[4] = two treatment regimens: day 0 to day 6, or day 8 to day 16, 0.3 mg/kg i.v. twice daily
[5] = therapeutic, twice daily i.v. 0.3 mg/kg, days 8 to 19

SMILES: CC[C@@H](O)/C=C/C=C\C[C@@H](O)/C=C/C=C/C=C\[C@@H](O)CCCC(=O)O [Compound X]
- ex vivo IFN-γ and TNFα production in lymph node cells ([1]; 0.3 mg/kg i.v. twice daily day 0 to day 6, collagen 25 or 50 μg/mL overnight): inhibited
- reduction of collagen- or CD3-induced IFNγ, TNFα and IL-17 secretion from draining lymph node cells ([1]; treated animals compared to controls): 60-90%
- ex vivo anti-CD3 mAb-induced IL-17 production in lymph node cells [1, 4]: inhibited
- ex vivo collagen-induced IFN-γ production in lymph node cells [1, 4]: inhibited
- paw swelling (as measured by ankle diameter) ([2]; prophylactic, twice daily i.v. 0.3 mg/kg, days 0 to 10): significant reduction
- bone resorption and joint damage ([2]; therapeutic dosing): protected
- knee histopathology scores: inflammation, pannus, cartilage damage, bone resorption [2, 5]: significant reduction
- mean ankle joint volume [2, 5]: significant reduction
- CD3-induced cytokine production of spleen cells after in vitro treatment [3]: inhibited
